# Experimental data reported in patent US7316989B2 (priority 2001, dated 2008).
# Where two headings read alike, the source gives them in different places.
# Legend:
# [1] = tested on: tomato verticullium wilt fungus (Verticillium dahliae); test: Tomato verticillium wilt control test; assay type: in vivo; settings: submersion 12 hr, 20 ppm in terms of cerebroside B, 21st day
# [2] = tested on: lettuce root rot fungus (Fusarium oxysporum f. sp. lactucae race SB1-1); test: Lettuce root rot control test; assay type: in vivo; settings: submersion treatment, 20 ppm cerebroside B solution (H)
# [3] = tested on: sweet potato dead arm fungus (Fusarium oxysporum); test: Sweet potato stem rot control test; settings: sweet potato (Benikomachi) roots submerged 30 min, 20 ppm in terms of cerebroside B; disease development of roots 26 days after transplantation
# Procedure: The root parts of seedling sweet potatoes (variety: Benikomachi) infected with sweet potato dead arm fungus (Fusarium oxysporum) were submerged in each sample solution for 30 min before planting in a field. Individual plots were treated by the following sample liquids. Experimental plot (E) was treated with a liquid (concentration: 20 ppm in terms of cerebroside B) prepared by diluting ethanol extract concentrate A prepared in Example 1 by 150 times. Comparison plot (H) was treated with a liquid having a cerebroside B concentration of 20 ppm. The number of plants per plot was 20, and one plot consisted of four blocks which were provided at intervals of 60 cm. In this state, the plants were transplanted in the field.
# The percentage disease development of roots was investigated 26 days after the transplantation, and the protective value was calculated from the average percentage disease development of roots.
# [4] = tested on: Brown spot fungus (Cochliobolus miyabeanus); test: Rice Brown spot control test; assay type: in vivo; settings: same treatment as Example 3 (10 ppm in terms of cerebroside B), counted two days after spray inoculation
# [5] = tested on: rice blast fungus (Magnaporthe grisea, race: 007); assay type: in vivo
# rice blast (leaf blast) = assay type: in vivo, Magnaporthe grisea; settings: rice (Koshihikari) field, spray 120 L/10 are on 44th and 51st days after transplantation; E and F 20 ppm in terms of cerebroside B, F and G with Mylinow spreader, G 500 ppm fthalide; leaf blast one month after initial application
compound,measurement,setting,value
"CCCCCCCCCCCCCC[C@@H](O)C(=O)N[C@@H](CO[C@@H]1O[C@H](CO)[C@@H](O)[C@H](O)[C@H]1O)[C@H](O)/C=C/CC/C=C(\C)CCCCCCCCC [cerebroside B, (4E,8E)-N-D-2′-hydroxypalmitoyl-1-O-β-D-glucopyranosyl-9-methyl-4,8-sphingadienine]",Protective value,[1],60
same,Protective value,[2]; 28th day,78
same,Raw weight ratio on ground part,[2]; control plot = 100,231
same,Protective value,[3],70
same,Protective value,[4],87.3
same,Number of lesions (average number of lesions per leaf),[4]; control plot 10.2,1.3
same,Protective value,"[5]; Example 4, 10 ppm in terms of cerebroside B, 2 ml per pot to foliage, plot B with 0.1% Tween 20 as spreader",87.6
same,Number of lesions (average number of lesions per leaf),"[5]; Example 4, 10 ppm in terms of cerebroside B, 2 ml per pot to foliage, plot B with 0.1% Tween 20 as spreader, control plot 18.6",2.3
same,Protective value,"[5]; rice (Akitakomachi), foliar application 2 ml per pot, diluted to 10 ppm in terms of cerebroside B, inoculation 3 days after treatment, lesions counted 5 days after inoculation",90
same,Protective value,rice blast (leaf blast),93
